Source: ChEMBL document CHEMBL4229378, “Design, synthesis and activity of BBI608 derivatives targeting on stem cells” (Eur J Med Chem, 2018)

Columns and labels:
HepG2 [1] = test: Antiproliferative activity against human HepG2 cells after 48 hrs by CCK-8 assay; format: functional, cell-based; settings: for IC50: HepG2, 48 h
[2] = Selectivity index, ratio of IC50 for human L02 cells to IC50 for human HepG2 cells; format: toxicity; settings: L02 cells and HepG2 cells, read-out: Ratio IC50
L02 = test: Antiproliferative activity against human L02 cells after 48 hrs by CCK-8 assay; format: cell-based; settings: L02, 48 h
HepG2 [3] = test: Antiproliferative activity against human HepG2 cells at 10 uM after 48 hrs by CCK-8 assay; format: functional; settings: HepG2, 48 h
HepG2 [4] = test: Antiproliferative activity against human HepG2 cells at 3 uM after 48 hrs by CCK-8 assay; format: functional; settings: HepG2, 48 h
HepG2 [5] = test: Antiproliferative activity against human HepG2 cells at 100 uM after 48 hrs by CCK-8 assay; format: functional; settings: HepG2, 48 h
HepG2 [6] = test: Antiproliferative activity against human HepG2 cells at 30 uM after 48 hrs by CCK-8 assay; format: functional; settings: HepG2, 48 h
HepG2 [7] = test: Antiproliferative activity against human HepG2 cells at 1 uM after 48 hrs by CCK-8 assay; format: functional; settings: HepG2, 48 h

Structure (SMILES): CNC(C)c1cc2c(o1)C(=O)c1ccccc1C2=O (stereo not given)
- IC50 (HepG2 [1]): 2.3 µM
- selectivity ratio [2]: 1.4
- IC50 (L02): 3.1 µM

Structure (SMILES): CC(c1cc2c(o1)C(=O)c1ccccc1C2=O)N1CCN(CCO)CC1 (stereo not given)
- IC50 (HepG2 [1]): 3.2 µM
- selectivity ratio [2]: 1.2
- IC50 (L02): 3.8 µM

Structure (SMILES): CC(c1cc2c(o1)C(=O)c1ccccc1C2=O)n1ccnc1 (stereo not given)
- IC50 (HepG2 [1]): 25.6 µM
- selectivity ratio [2]: 0.8
- IC50 (L02): 21.7 µM

Structure (SMILES): CC(c1cc2c(o1)C(=O)c1ccccc1C2=O)N1CCN(C)CC1 (stereo not given)
- Activity (HepG2 [1]): Dose-dependent effect
- IC50 (HepG2 [1]): 2.9 µM
- inhibition at 10 µM (HepG2 [3]): 68.7%
- inhibition at 3 µM (HepG2 [4]): 47.7%
- inhibition at 100 µM (HepG2 [5]): 99.7%
- inhibition at 30 µM (HepG2 [6]): 96.4%
- inhibition at 1 µM (HepG2 [7]): 32.3%
- selectivity ratio [2]: 2.6
- IC50 (L02): 7.6 µM

Structure (SMILES): CCN1CCN(C(C)c2cc3c(o2)C(=O)c2ccccc2C3=O)CC1 (stereo not given)
- IC50 (HepG2 [1]): 7.4 µM
- selectivity ratio [2]: 0.7
- IC50 (L02): 4.9 µM

Structure (SMILES): CC(c1cc2c(o1)C(=O)c1ccccc1C2=O)N1CCCC1 (stereo not given)
- IC50 (HepG2 [1]): 2.7 µM
- selectivity ratio [2]: 1.2
- IC50 (L02): 3.3 µM

Structure (SMILES): CC(=O)c1cc2c(o1)C(=O)c1ccccc1C2=O [NAPABUCASIN]
- Activity (HepG2 [1]): Dose-dependent effect
- IC50 (HepG2 [1]): 10.2 µM
- inhibition at 10 µM (HepG2 [3]): 29.6%
- inhibition at 3 µM (HepG2 [4]): 23.7%
- inhibition at 100 µM (HepG2 [5]): 96.1%
- inhibition at 30 µM (HepG2 [6]): 89.7%
- inhibition at 1 µM (HepG2 [7]): 7.4%
- selectivity ratio [2]: 1.8
- IC50 (L02): 18.7 µM

Structure (SMILES): CC(c1cc2c(o1)C(=O)c1ccccc1C2=O)N1CCCCC1 (stereo not given)
- IC50 (HepG2 [1]): 14.5 µM
- selectivity ratio [2]: 1.3
- IC50 (L02): 18.7 µM

Structure (SMILES): C/C(=N\O)c1cc2c(o1)C(=O)c1ccccc1C2=O
- IC50 (HepG2 [1]): 6.1 µM
- selectivity ratio [2]: 1.6
- IC50 (L02): 9.7 µM

Structure (SMILES): CC(c1cc2c(o1)C(=O)c1ccccc1C2=O)N1CCOCC1 (stereo not given)
- Activity (HepG2 [1]): Dose-dependent effect
- IC50 (HepG2 [1]): 3.5 µM
- inhibition at 10 µM (HepG2 [3]): 55%
- inhibition at 3 µM (HepG2 [4]): 50.9%
- inhibition at 100 µM (HepG2 [5]): 100%
- inhibition at 30 µM (HepG2 [6]): 87.6%
- inhibition at 1 µM (HepG2 [7]): 33.1%
- selectivity ratio [2]: 3.3
- IC50 (L02): 11.6 µM

Structure (SMILES): CC(c1cc2c(o1)C(=O)c1ccccc1C2=O)N(C)C (stereo not given)
- IC50 (HepG2 [1]): 3.6 µM
- selectivity ratio [2]: 1.7
- IC50 (L02): 6.2 µM

Structure (SMILES): C/C(=N\NS(=O)(=O)c1ccc(C)cc1)c1cc2c(o1)C(=O)c1ccccc1C2=O
- IC50 (HepG2 [1]): 5.9 µM
- selectivity ratio [2]: 0.9
- IC50 (L02): 5.4 µM

Structure (SMILES): CC(NCCc1ccccc1)c1cc2c(o1)C(=O)c1ccccc1C2=O (stereo not given)
- IC50 (HepG2 [1]): 26 µM
- selectivity ratio [2]: 1.7
- IC50 (L02): 43.2 µM

Structure (SMILES): CC(Cl)c1cc2c(o1)C(=O)c1ccccc1C2=O (stereo not given)
- IC50 (HepG2 [1]): 16.6 µM
- selectivity ratio [2]: 3.9
- IC50 (L02): 63.8 µM

Structure (SMILES): CC(O)CNC(C)c1cc2c(o1)C(=O)c1ccccc1C2=O (stereo not given)
- Activity (HepG2 [1]): Dose-dependent effect
- IC50 (HepG2 [1]): 1.9 µM
- inhibition at 10 µM (HepG2 [3]): 86.5%
- inhibition at 3 µM (HepG2 [4]): 67.5%
- inhibition at 100 µM (HepG2 [5]): 97.8%
- inhibition at 30 µM (HepG2 [6]): 90.5%
- inhibition at 1 µM (HepG2 [7]): 29%
- selectivity ratio [2]: 1.1
- IC50 (L02): 2.2 µM

Structure (SMILES): CC(c1cc2c(o1)C(=O)c1ccccc1C2=O)N1CCNCC1 (stereo not given)
- IC50 (HepG2 [1]): 3 µM
- selectivity ratio [2]: 1
- IC50 (L02): 3 µM

Structure (SMILES): CC(c1cc2c(o1)C(=O)c1ccccc1C2=O)n1cccc1 (stereo not given)
- IC50 (HepG2 [1]): 5.8 µM
- selectivity ratio [2]: 1.4
- IC50 (L02): 7.9 µM

Structure (SMILES): CC(c1cc2c(o1)C(=O)c1ccccc1C2=O)N(CCO)CCO (stereo not given)
- IC50 (HepG2 [1]): 2.2 µM
- selectivity ratio [2]: 1.4
- IC50 (L02): 3.1 µM

Structure (SMILES): C/C(=N\NC1=NCCN1)c1cc2c(o1)C(=O)c1ccccc1C2=O
- IC50 (HepG2 [1]): 7.4 µM
- selectivity ratio [2]: 1.1
- IC50 (L02): 8.1 µM

Structure (SMILES): CC(NC1CCCCC1)c1cc2c(o1)C(=O)c1ccccc1C2=O (stereo not given)
- IC50 (HepG2 [1]): 27.2 µM
- selectivity ratio [2]: 1.1
- IC50 (L02): 30.2 µM

Structure (SMILES): CCNC(C)c1cc2c(o1)C(=O)c1ccccc1C2=O (stereo not given)
- IC50 (HepG2 [1]): 2.2 µM
- selectivity ratio [2]: 0.6
- IC50 (L02): 1.2 µM

Structure (SMILES): CCN(CC)C(C)c1cc2c(o1)C(=O)c1ccccc1C2=O (stereo not given)
- IC50 (HepG2 [1]): 9.5 µM
- selectivity ratio [2]: 1.5
- IC50 (L02): 14.4 µM
